Measured values taken from US20190345199A1, “LIPOLANTHIPEPTIDES AND THEIR USES AS ANTIMICROBIAL AGENTS” (DEINOVE, priority 2017, published 2019).
≈ marks a conversion by molar mass, not a printed value. Read-outs that look alike come from different tables or passages of the source.

Assays:
Type in all cases: cell-based
[1] = test system: Cryptococcus neoformans; test: MIC, extended antimicrobial activities (fungi); details: Cryptococcus neoformans DSMZ6972
[2] = test system: Candida krusei; test: MIC, extended antimicrobial activities (fungi); details: Pichia kudriavzevii; Candida krusei DSMZ6128
[3] = test system: Candida albicans; test: MIC, extended antimicrobial activities (fungi); details: Candida albicans ATCC10231
[4] = test system: Candida tropicalis; test: MIC, extended antimicrobial activities (fungi); details: Candida tropicalis DSMZ11953
Protocol: (§1) The measures of activities were conducted on compound NOC1 from Nocardia terpenica following the protocol recommended by the Clinical and Laboratory Standards Institute (CLSI)—Clinical and Laboratory Standards Institute (CLSI, formerly NCCLS): Methods for Dilution Antibacterial Susceptibility Tests for Bacteria That Grow Aerobically; Approved Standard—Tenth Edition (2015). Clinical and Laboratory Standards Institute Document M07-A10.

[5] = test system: Candida parapsilosis; test: MIC, extended antimicrobial activities (fungi); details: Lodderomyces parapsilosis; Candida parapsilosis DSMZ5784
Protocol: as §1

[6] = test system: Candida glabrata; test: MIC, extended antimicrobial activities (fungi); details: Nakaseomyces glabratus; Candida glabrata DSMZ6425
[7] = test system: Enterococcus faecium; test: MIC, CLSI dilution antibacterial susceptibility test
Protocol: as §1
(§2) The measures of activities were conducted on compounds A, B and C, following the protocol recommended by the Clinical and Laboratory Standards Institute (CLSI)—Clinical and Laboratory Standards Institute (CLSI, formerly NCCLS):
(§3) Methods for Dilution Antibacterial Susceptibility Tests for Bacteria That Grow Aerobically; Approved Standard—Tenth Edition (2015). Clinical and Laboratory Standards Institute Document M07-A10.

[8] = test system: Staphylococcus aureus; test: as above; details: read-out: Minimal Inhibitory Concentration (MIC)
Protocol: as §1, §2, §3

[9] = test system: Enterococcus faecalis; test: as above
Protocol: as §1

[10] = test system: Bacillus subtilis; test: as above; details: Bacillus subtilis ATCC6633
Protocol: as §1

In the case of `CCC(C)C1NC(=O)C(NC(=O)C(C)NC(=O)/C=C/C=C/CC/C=C/CCCCN/C(=N/C)NC)CC2(CS/C=C\NC(=O)CNC(=O)C(CC(N)=O)NC2=O)NC(=O)C(CO)NC1=O` (stereo not shown) [NOC1], the MIC [1] is reported as 24 µg/mL (≈ 25.8 µM), the MIC [2] is reported as 12 µg/mL (≈ 12.9 µM) and the MIC [3] is reported as 3 µg/mL (≈ 3.22 µM). For the same molecule, the MIC [4] was 6 µg/mL (≈ 6.44 µM), the MIC [5] was 24 µg/mL (≈ 25.8 µM) and the MIC [6] was 12 µg/mL (≈ 12.9 µM). The MIC ([7]; Enterococcus faecium ATCC19434, vancomycin sensitive) was 8 µg/mL (≈ 8.59 µM), the MIC ([7]; Enterococcus faecium ATCC51559, vancomycin resistant (gene vanA)) was 16 µg/mL (≈ 17.2 µM) and the MIC ([7]; Enterococcus faecium ATCC51858, vancomycin resistant (gene vanB)) was 16 µg/mL (≈ 17.2 µM). The MIC ([8]; S. aureus ATTC 1683 (ATCC1683), methicillin resistant) was 16 µg/mL (≈ 17.2 µM), the MIC ([8]; S. aureus ATTC 13709 (ATCC13709), fully susceptible / methicillin sensitive) was 2 µg/mL (≈ 2.15 µM) and the MIC ([8]; S. aureus ATTC 25923 (ATCC25923), methicillin sensitive) was 2 µg/mL (≈ 2.15 µM). The MIC ([8]; S. aureus USA300, methicillin resistant) was 60 µg/mL (≈ 64.4 µM), the MIC ([9]; Enterococcus faecalis ATCC29212, vancomycin sensitive) was 160 µg/mL (≈ 172 µM) and the MIC ([9]; Enterococcus faecalis ATCC700802, vancomycin resistant (gene vanB)) was 16 µg/mL (≈ 17.2 µM). The MIC [10] was 2 µg/mL (≈ 2.15 µM).
